Assay results reported in article PMC5617480 (Oncotarget, 2017).

Assays:
BEL-7404 cells = experiment: Senescence induction (SA-β-Gal staining); format: cell-based, human; details: BEL-7404, 2.0 μM, 7 d, compared with complexes 4 and 5
Protocol: Platinum(II)-based drugs were widely used in anticancer chemotherapies, therefore, we performed experiments to test the potency of chiral platinum(II) complexes 4–6 for inducing senescence and apoptosis in BEL-7404 cells. […] We next investigated the effect of complexes 4–6 on the induction of apoptosis. BEL-7404 cells were incubated with complexes 4 (10 and 20 μM), 5 (10 and 20 μM) and 6 (5, 10 and 20 μM) for 24 h, respectively, and then these cells staining with PI and Annexin-V-FITC were determined by flow cytometry (Figure 3A and Supplementary Figure 18). […] Cells were treated with complexes 4–6 at 10 μM for 48 h, the cell cycle arrest was determined by using flow cytometry. […]
Apoptosis analysis c-myc antibody, or anti-β-actin primary antibody and the Apoptosis was detected by flow cytometric analysis corresponding secondary antibody were used to detect of annexin V staining. […] Then, cells were incubated with annexin V-FITC and PI for 1.0 h at Staining for SA-β-Gal activity was carried out room temperature in the dark and immediately analyzed according to Moore and Chen reports. […] The data are presented as biparametric After the long-term incubation with complexes 4–6, the dot plots showing PI red fluorescence vs annexin V-FITC growth medium was aspirated and the BEL-7404 cells green fluorescence. were fixed in 2% formaldehyde/0.2% glutaraldehyde for 15.0 min at room temperature. […]

mice = experiment: In vivo toxicity of multiple doses; details: monitored another week
Protocol: We then assessed the in vivo toxicity of multiple doses of complex 6. The mice was treated with complex 6 at 7.8 mg/kg daily or per two day by iv injection up to 7 days, and then monitored for another week.

Substance: cis-[PtCl2(S-(–)-FOA)] [complex 6]
- level of senescence (β-galactosidase stain) (BEL-7404 cells): higher level of senescence
- safety of multiple doses (mice; 7.8 mg/kg daily iv up to 7 days): safe for mice
- body weight change (mice; 7.8 mg/kg daily or per two day iv up to 7 days): Moderate body weight increase
